TGI and GI50 data for 25 molecules are collected here from PubChem BioAssay (NCI).

Some test systems named below: U251 CNS; HCT-15 colon; NCI-H460 lung; MALME-3M melanoma; SF-295 CNS; NCI-H522 lung; NCI-H226 lung.
Assay in all cases: NCI anticancer screen, dose series, 48 h

Where “and” joins values, the source holds several entries; their conditions need not be identical. Equal values may be shown once.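 The compound was tested at five concentrations on cells cultured in 96-well plates, with a 48-hour exposure period. Here, GI50 denotes the concentration required for 50% inhibition of growth. TGI: total growth inhibition.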 Bounds are passed on as bounds.

Regarding `CCP(C)(C)=O`, the TGI in the experiment with U251 CNS, in the experiment with HCT-15 colon, with NCI-H460 lung, with MALME-3M melanoma and with SF-295 CNS was above 100 µM throughout.

On to `CN(C)CCC(/C=C/c1ccccc1)=N\Nc1ccc(Cl)cc1`, for which the TGI with U251 CNS worked out at 5.51 µM; in the experiment on NCI-H522 lung, 7.77 µM; in the experiment with HCT-15 colon, 15.2 µM; in the experiment with NCI-H460 lung, 4.29 µM; in the experiment with MALME-3M melanoma, 26.2 µM; in the experiment on SF-295 CNS, 13.1 µM.

As to `Cc1cc(Cl)cc2c1NC(=O)C2(O)CC(=O)c1ccc(F)cc1` (stereo not given), the TGI in the experiment on U251 CNS is above 100 µM; in the experiment on NCI-H226 lung, above 100 µM; with HCT-15 colon it was above 100 µM; with NCI-H460 lung, above 100 µM; in the experiment on MALME-3M melanoma, 75.1 µM; with SF-295 CNS, above 100 µM.

`Cc1cccc(Cl)c1NC(=O)c1cccc([N+](=O)[O-])c1O`: the TGI was above 100 µM with U251 CNS; 95.9 µM with NCI-H226 lung; 50.4 µM with NCI-H522 lung; above 100 µM with HCT-15 colon; above 100 µM in the experiment on NCI-H460 lung; 84.7 µM with MALME-3M melanoma. For the same molecule, in the experiment with SF-295 CNS, the TGI is above 100 µM.

Regarding `COc1cc(/C=C2\NC(=S)C3Cc4c(OC)c(C)c(OC)c(OC)c4C2N3C)c(OC)c(C)c1OC` (stereo not given), the TGI with U251 CNS was above 100 µM; in the experiment on NCI-H226 lung, above 100 µM; in the experiment on NCI-H522 lung, 97.9 µM; with NCI-H460 lung, 30 µM; with MALME-3M melanoma, above 100 µM; in the experiment on SF-295 CNS it was above 100 µM.

Take `CC1NCCc2c1[nH]c1cc(O)ccc21` (stereo not given): the TGI with NCI-H226 lung, with HCT-15 colon, with NCI-H460 lung, in the experiment on MALME-3M melanoma and in the experiment on SF-295 CNS was above 100 µM each time.

`C/C=C/C=C/CCCCCCCCCCCCC[C@]1(OC)C=CC(CC(=O)OC)OO1` (stereo not given in full): the GI50 in the experiment with NCI-H522 lung is 3.8 µM; in the experiment on HCT-15 colon, 16 µM; with SF-295 CNS it was 18.5 µM. In addition, the TGI with NCI-H522 lung was determined as 16.6 µM; in the experiment on HCT-15 colon, 29.5 µM; in the experiment on NCI-H460 lung it was 46.8 µM; in the experiment with MALME-3M melanoma it was 77.5 µM; in the experiment on SF-295 CNS it was 34.3 µM.

Turning to `NC1=NCC(c2ccccn2)C1c1ccc(F)cc1` (stereo not given), the TGI in the experiment on U251 CNS, in the experiment on NCI-H226 lung, in the experiment on NCI-H522 lung, with NCI-H460 lung, with MALME-3M melanoma and in the experiment with SF-295 CNS was above 100 µM each time.

As for `CC1(C)Cc2nnsc2C2=C1C(=O)CCS2`, the TGI in the experiment on U251 CNS, in the experiment on NCI-H522 lung, with HCT-15 colon, in the experiment on NCI-H460 lung, in the experiment on MALME-3M melanoma and with SF-295 CNS was above 100 µM in each case.

Take `OCCSCC/C(=N\N=C(/CCSCCO)c1ccccc1)c1ccccc1`: the TGI in the experiment with U251 CNS, in the experiment with NCI-H226 lung, in the experiment on HCT-15 colon, with NCI-H460 lung, in the experiment with MALME-3M melanoma and in the experiment on SF-295 CNS was above 100 µM throughout.

On to `CC(=O)OCC1OC(n2c(=S)n(-c3ccccc3)c(=O)c3cc(Br)ccc32)C(OC(C)=O)C(OC(C)=O)C1OC(C)=O` (stereo not given), for which the TGI with U251 CNS, in the experiment on NCI-H226 lung, with NCI-H522 lung, in the experiment with HCT-15 colon, in the experiment on NCI-H460 lung and in the experiment on MALME-3M melanoma was above 100 µM each time. The molecule further yielded a TGI with SF-295 CNS above 100 µM. Moreover, the GI50 in the experiment on MALME-3M melanoma is above 100 µM; in the experiment on SF-295 CNS it was 46.5 µM and > 100 µM.

For the molecule `CC(C)(C)c1cc(-c2c3nc(c(-c4cc(C(C)(C)C)cc(C(C)(C)C)c4)c4ccc([nH]4)c(-c4cc(C(C)(C)C)cc(C(C)(C)C)c4)c4nc(c(-c5cc(C(C)(C)C)cc(C(C)(C)C)c5)c5ccc2[nH]5)C=C4)C=C3)cc(C(C)(C)C)c1`, the TGI in the experiment with U251 CNS, with NCI-H226 lung, in the experiment on NCI-H522 lung, with HCT-15 colon, with NCI-H460 lung and with MALME-3M melanoma was above 100 µM throughout. Moreover, the TGI in the experiment with SF-295 CNS is above 100 µM.

As for `Cc1ccccc1NC(=O)C(=O)CC(=O)C1CCOC1=O` (stereo not given), the TGI with U251 CNS, with NCI-H226 lung, in the experiment on NCI-H522 lung, with HCT-15 colon, in the experiment on NCI-H460 lung and in the experiment on MALME-3M melanoma was above 100 µM throughout. Besides, in the experiment with SF-295 CNS, the TGI is above 100 µM.

On to `COc1ccc(C(=O)C/C(=N/NC(N)=S)C(=O)Nc2ccccc2)cc1`, for which the TGI in the experiment on U251 CNS, with NCI-H226 lung, in the experiment on HCT-15 colon, in the experiment on NCI-H460 lung, in the experiment with MALME-3M melanoma and with SF-295 CNS was above 100 µM throughout.

Consider `Cc1cccc(C)c1NC(=O)CCCC(=O)C(C#N)c1ccc(Cl)cc1` (stereo not given), for which the TGI in the experiment on U251 CNS, in the experiment with NCI-H226 lung, in the experiment with NCI-H522 lung, in the experiment on HCT-15 colon, in the experiment on NCI-H460 lung and in the experiment on MALME-3M melanoma was above 100 µM each time. For the same molecule, the TGI in the experiment on SF-295 CNS was above 100 µM.

In the case of `C[CH2][Ge]([CH2]C)([CH2]C)[O]C(=O)C([O][Ge]([CH2]C)([CH2]C)[CH2]C)c1ccccc1` (stereo not given), the GI50 was 17.2 µM in the experiment with U251 CNS; 25.7 µM with NCI-H226 lung; 11 µM with NCI-H522 lung; 14 µM in the experiment on HCT-15 colon; 16.3 µM in the experiment on NCI-H460 lung; 16.8 µM in the experiment on MALME-3M melanoma. The GI50 with SF-295 CNS was 14.5 µM. Besides, the TGI was 41.4 µM with U251 CNS; 88 µM with NCI-H226 lung; 27.3 µM with NCI-H522 lung; 30 µM in the experiment on HCT-15 colon; above 100 µM in the experiment with NCI-H460 lung; above 100 µM in the experiment on MALME-3M melanoma. This molecule also returned a TGI in the experiment with SF-295 CNS of 41 µM.

In the case of `O=C1[C@@H]2C(c3ccncc3)=NO[C@@H]2C(=O)N1c1ccc(Cc2ccc(N3C(=O)[C@H]4C(c5ccncc5)=NO[C@H]4C3=O)cc2)cc1`, the TGI in the experiment on U251 CNS, in the experiment on NCI-H226 lung, with HCT-15 colon, in the experiment with NCI-H460 lung, with MALME-3M melanoma and in the experiment with SF-295 CNS was above 100 µM in each case.

`CN(C)CCC(=O)N1CCc2c([nH]c3ccccc23)C1c1cccnc1` (stereo not given): the TGI in the experiment with U251 CNS, with NCI-H522 lung, in the experiment on HCT-15 colon, in the experiment with NCI-H460 lung and with SF-295 CNS was above 100 µM throughout.

On to `O=[N+]([O-])c1ccc2nc3ccscc-3c2c1`, for which the TGI was 85.3 µM in the experiment with U251 CNS; above 100 µM in the experiment with NCI-H226 lung; 59.9 µM with NCI-H522 lung; above 100 µM in the experiment on HCT-15 colon; 49.4 µM in the experiment with NCI-H460 lung; above 100 µM with MALME-3M melanoma. The TGI in the experiment with SF-295 CNS was above 100 µM.

For `NCCn1cnc2nc(NC(=O)c3ccccc3)[nH]c(=O)c21`, the TGI in the experiment with U251 CNS, in the experiment with NCI-H226 lung, in the experiment with HCT-15 colon, in the experiment with NCI-H460 lung, with MALME-3M melanoma and in the experiment on SF-295 CNS was above 100 µM throughout.

Consider `COc1ccc(/C(=C\c2cc(OC)c(OC)c(OC)c2)C(=O)O)cc1`, for which the TGI in the experiment on U251 CNS is above 100 µM; with NCI-H226 lung it was 77.4 µM; with NCI-H522 lung, 47.7 µM; in the experiment with HCT-15 colon, above 100 µM; with NCI-H460 lung, above 100 µM; in the experiment on MALME-3M melanoma it was above 100 µM. Also, the TGI with SF-295 CNS was 45.5 µM.

`Cc1nnc2n1N=C(c1ccc(-c3ccc([N+](=O)[O-])cc3)o1)CS2`: the TGI with U251 CNS, in the experiment on NCI-H226 lung, in the experiment on NCI-H522 lung, in the experiment with HCT-15 colon, with NCI-H460 lung and with MALME-3M melanoma was above 100 µM in each case. Also, the TGI with SF-295 CNS was above 100 µM.

For the molecule `C=C[Si](C)(C)COC(=O)/C(C#N)=C/C=C/c1ccccc1`, the TGI with U251 CNS, in the experiment with NCI-H226 lung, in the experiment on NCI-H522 lung, in the experiment on HCT-15 colon, in the experiment with NCI-H460 lung and in the experiment on MALME-3M melanoma was above 100 µM throughout. For the same molecule, the TGI in the experiment with SF-295 CNS was above 100 µM.

On to `CCOC(=O)C1=C(c2ccccc2)NC(c2ccccc2)=C(C(=O)OCC)c2c1c(=O)cc[nH]c2=O`, for which the TGI in the experiment on U251 CNS, in the experiment with NCI-H226 lung, in the experiment on NCI-H522 lung, with HCT-15 colon, in the experiment with NCI-H460 lung and in the experiment on MALME-3M melanoma was above 100 µM each time. Further, the TGI in the experiment on SF-295 CNS was above 100 µM.

`CCOC(=O)C1=C(C)N(NC(=O)OC)C2(N)N(NC(=O)OC)C(C)=C(C(=O)OCC)C12C#N` (stereo not given): the TGI in the experiment on U251 CNS, in the experiment with NCI-H226 lung, with NCI-H522 lung, with HCT-15 colon, in the experiment on NCI-H460 lung and in the experiment on MALME-3M melanoma was above 100 µM throughout. The molecule further returned a TGI in the experiment with SF-295 CNS above 100 µM.
